Values after ≈ are worked out from the molar mass of the structure shown. Values joined by “and” are separate entries in the source; they are usually repeats but may differ in a detail not shown here. Identical values can stand only once. Like-named read-outs stand apart in the source and are kept apart here. Marks after values point to notes of the source that are not given here.
Tests used:
[1] = system: Escherichia coli ATCC 25922; experiment: microbe, parasite or virus in culture; format: cell-based
[2] = system: B. pseudomallei strain K96243; parameters: species or system Burkholderia pseudomallei; details: in vivo
[3] = system: Staphylococcus aureus ATCC 29213; experiment: microbe, parasite or virus in culture; format: cell-based
[4] = system: Burkholderia pseudomallei; experiment: microbe, parasite or virus in culture; format: cell-based
[5] = system: Pseudomonas aeruginosa ATCC 27853; experiment: microbe, parasite or virus in culture; format: cell-based
[6] = mouse, in vivo
[7] = mouse, in vivo; remark: listed apart in the source
[8] = system: Escherichia coli, Klebsiella pneumoniae, and Pseudomonas aeruginosa; details: cited from earlier work
biothreat pathogens = format: cell-based

CC(C)(O/N=C(\C(=O)N[C@@H]1C(=O)N2C(C(=O)[O-])=C(C[n+]3ccccc3)CS[C@H]12)c1csc(N)n1)C(=O)O [Ceftazidime, ceftazidime, reference compound]
MIC ([1]; Escherichia coli, ATCC25922): 0.12 µg/mL (≈ 0.22 µM) | Survival log-rank (Mantel–Cox) test P [2]: <0.0001^a | day average body weight started to decline again [2]: 11 days | day mean body weight began to recover [2]: > 5 days | survival at the end of the 29-day observation phase [2]: 20% | survival during the treatment phase [2]: 70% | MIC ([3]; Staphylococcus aureus, ATCC29213): 8 µg/mL (≈ 14.6 µM) | MIC50 [4]: 2 µg/mL (≈ 3.66 µM) | MIC90 [4]: 8 µg/mL (≈ 14.6 µM) | MIC ([4]; NCTC4845): 2 µg/mL (≈ 3.66 µM) | MIC ([5]; Pseudomonas aeruginosa, ATCC27853): 1 µg/mL (≈ 1.83 µM)

C[C@@](O)(C(F)F)[C@H](NC(=O)c1ccc(C#CC#CC2CC2)cc1)C(=O)NO [LPC-233]
concentration of the drug in ELF samples ([6]; 30 mg/kg): 100 to 400 ng/mL | increase in AUC, 100 mg/kg IP compared to oral 100 mg/kg ([6]; 100 mg/kg): 2 fold | increase in Cmax, 100 mg/kg IP compared to oral 100 mg/kg ([6]; 100 mg/kg): 2 fold | Inf fT > MIC (free time above MIC) ([6]; ip, 100 mg/kg): ≥6 h | Inf fT > MIC (free time above MIC) ([6]; po, 10 mg/kg): ≥6 h | Inf fT > MIC (free time above MIC) ([6]; po, 30 mg/kg): ≥6 h | Inf fT > MIC (free time above MIC) ([6]; po, 100 mg/kg): ≥6 h | MIC [1]: ≤0.008 µg/mL | P, rescue of mice from infection in comparison with the vehicle [2]: < 0.0001 | average body weight after recovery [2]: maintained a steady average weight to the end of the study | bacterial burden in the lungs at study termination compared to ceftazidime-treated animals [2]: reduction of CFUs in the lungs | day average body weight declined again [2]: 15 days and 25 days | day mean body weight began to recover (turning point) [2]: 4 days and 2 days | final survival rate at the end of the observation period [2]: 60% and 80% and 90% | median time to death [2]: 6.3 days | recovery of average body weight [2]: did not recover | survival [2]: did not support survival | survival during the treatment phase [2]: 100% | P range, survival/times to death versus the ceftazidime group ([2]; 30 mg/kg): 0.001–0.05 | time following the last dose without deaths ([2]; 30 mg/kg): 15 days | Survival log-rank (Mantel–Cox) test P ([2]; 90 mg/kg): 0.5 | Survival log-rank (Mantel–Cox) test P ([2]; ip, 90 mg/kg): <0.0001^a and 0.009^a | Survival log-rank (Mantel–Cox) test P ([2]; po, 10 mg/kg): <0.0001^a and 0.008^a | Survival log-rank (Mantel–Cox) test P ([2]; po, 30 mg/kg): <0.0001^a and 0.05^a | Survival log-rank (Mantel–Cox) test P ([2]; po, 90 mg/kg): <0.0001^a and 0.001^a | MIC [3]: >16 µg/mL | Clearance [7]: 14.7 mL/min/kg | period plasma concentration remained above MIC90 [7]: ≥ 24 h | AUCELF (0–48 h) ([7]; 100 mg/kg): 334.6 µg·h/mL | AUCplasma (0–48 h) ([7]; 100 mg/kg): 398.6 µg·h/mL | ELF penetration (AUCELF/AUCplasma, 0–48 h) ([7]; 100 mg/kg): 83.9% | MIC [5]: 0.25 µg/mL (≈ 0.664 µM) | predicted MIC shift based on plasma protein unbound fraction [8]: ~ 30 fold | shift of MIC values in the presence of 50% mouse plasma [8]: 4–9 fold | MIC90 values for biothreat pathogens, folds lower than previous compounds such as ACHN-975 (biothreat pathogens): 4–8 folds

— paper PMC11784359 (Antimicrobial Agents and Chemotherapy, 2024)
